# From PubChem BioAssay (NCI)
# “And” between values parts separate entries of the source, which are not always exact repeats. Equal values may be shown once.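 Five concentrations, 48 hours, 96-well plates. Here, GI50 denotes the concentration required for 50% inhibition of growth. At the TGI there is no net growth.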
# Columns and labels:
# Assay in all cases: NCI tumour cell line growth inhibition, 48 h
# BT-549 breast = test system: BT-549 breast
# DU-145 prostate = test system: DU-145 prostate
# EKVX NSCLC = test system: EKVX NSCLC
# HOP-92 NSCLC = test system: HOP-92 NSCLC
# KM12 colon = test system: KM12 colon
# MALME-3M melanoma = test system: MALME-3M melanoma
# NCI-H226 lung = test system: NCI-H226 lung
# NCI-H23 lung = test system: NCI-H23 lung
# RPMI-8226 leukemia = test system: RPMI-8226 leukemia
# SN12C renal = test system: SN12C renal
SMILES,GI50 (BT-549 breast),TGI (BT-549 breast),GI50 (DU-145 prostate),TGI (DU-145 prostate),GI50 (EKVX NSCLC),TGI (EKVX NSCLC),GI50 (HOP-92 NSCLC),TGI (HOP-92 NSCLC),GI50 (KM12 colon),TGI (KM12 colon),GI50 (MALME-3M melanoma),TGI (MALME-3M melanoma),GI50 (NCI-H226 lung),TGI (NCI-H226 lung),GI50 (NCI-H23 lung) [µM],TGI (NCI-H23 lung),GI50 (RPMI-8226 leukemia),TGI (RPMI-8226 leukemia),GI50 (SN12C renal),TGI (SN12C renal)
O=C1CCC(N2C(=O)c3cccc(NCCCC4CCN(CCNC(=O)c5cc6c(o5)C(=O)c5ccccc5C6=O)CC4)c3C2=O)C(=O)N1 (centres undefined),0.636 µM,2.15 µM,0.185 µM,0.344 µM,1.5 µM,3.34 µM,3.51 µM,15.1 µM,1.29 µM,3.97 µM,0.14 µM,0.284 µM,1.42 µM,3.76 µM,0.159,0.399 µM,1.7 µM,20.9 µM,0.252 µM,0.806 µM
CCN(CC)C(=S)SSC(=S)N(CC)CC,19.2 µM and 19.9 µM,38 µM and 44.2 µM,24.5 µM and 31.7 µM,> 59.8 µM and 133 µM,25.7 µM and 25.6 µM,84.6 µM and 73.3 µM,15 µM and 40.4 µM,38.4 µM and 133 µM,14.4 µM and 13.7 µM,30.7 µM and 28.2 µM,18 µM and 21 µM,37.5 µM and 50 µM,27.6 µM and 82 µM,> 58.7 µM and 307 µM,23,> 76.7 µM and 70.1 µM,13.6 µM and 15 µM,30.5 µM and 46.6 µM,15 µM and 15.5 µM,29.3 µM and 31.9 µM
O=C1CSC(c2ccccc2O)N1c1nnc(Cn2ccnc2)o1 (centres undefined),6.26 µM,29.2 µM,17.5 µM,56.6 µM,3.5 µM,20 µM,2.23 µM,28.9 µM,5.16 µM,> 100 µM,4.43 µM,26.2 µM,37.2 µM,> 100 µM,14.9,65 µM,3.52 µM,24.4 µM,12.8 µM,> 100 µM
O=c1cccc(C#CC#CCCCO)o1,7.95 µM,23.6 µM,2.37 µM,5.86 µM,3 µM,7.6 µM,2.47 µM,6.13 µM,0.834 µM,9.26 µM,0.788 µM,3.78 µM,13.8 µM,32.5 µM,4.17,11.7 µM,,> 26.7 µM,5.21 µM,16.7 µM
C=CCCCOC1[C@H](OCc2ccccc2)C(OCc2ccccc2)C(OC)O[C@@H]1CNC(=O)c1cccc(I)c1 (some centres undefined),8.79 µM,> 100 µM,8.52 µM,> 100 µM,3.2 µM,> 100 µM,5.08 µM,> 100 µM,6.49 µM,> 100 µM,5.43 µM,> 100 µM,21.9 µM,> 100 µM,33.6,> 100 µM,2.57 µM,9.19 µM,8.53 µM,> 100 µM
